Tested on: P388/0 cell lines
Assay: Cytotoxicity assay, growth inhibition of P388/0 cells (Alamar Blue)
Format: cell-based
Details: 3 days incubation at 37° C., drug concentration inhibiting growth of cells by 50%
Protocol: Cell Lines and Cytotoxicity Assays. Studies using P388/0 cell lines for IC50 (drug concentration inhibiting growth of cells by 50%) were maintained and conducted using standard procedures. Briefly, for IC50 determination, cells were seeded into the microwell plates at a density of 2×10^3 cells per 50 μL per well. Plates were incubated at 37° C. in a humidified incubator with 5% CO2 for 3 days. Cell growth was measured by the addition of 10 μL/well of Alamar Blue (Alamar Biosciences, Inc., Sacramento, Calif.) and the plates were incubated a further 4 hours at 37° C. The IC50 values for each compound were determined from absorbance versus dilution factor plots. All cell cultures for animal implantation were maintained at 37° C. in a humidified atmosphere of 5% CO2/[…] and subcultured once a week. All cell lines were periodically tested for Mycoplasma and were Mycoplasma free.

In the case of `Nc1ccn([C@@H]2O[C@H](CO)[C@@H](O)[C@@H]2O)c(=O)n1` [Ara-C, ara-C], the IC50 is reported as 10 nM.

From US6756037B2, “Polymer conjugates of biologically active agents and extension moieties for facilitating conjugation of biologically active agents to polymeric terminal groups” (Enzon, Inc., priority 2000, dated 2004)
